What all share (assay): biochemical
Parameters in all cases: DiscoverX KinomeScan competition binding assay across human kinases; per cent of control at 10 and 100 uM

In one assay the target is T1, CDC2L1 (Homo sapiens, UniProt P21127).
T1 construct: gene CDK11B
The settings on record: competition binding, % of control; read-out: Percent Control (100 uM Levosimendan). An outline of the steps:
(§1)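 Binding is expressed as %control, normalised between positive and negative control signals. The compound (levosimendan) was tested at 10 μM and 100 μM in the DiscoverX KinomeScan competition binding format against human kinases.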

For the next assay, the target named is EPHA7 (Homo sapiens, UniProt Q15375). Conditions: competition binding, % of control; read-out: Percent Control (100 uM Levosimendan). In short, it runs like this: as §1
A further assay addresses T2, MEK2 (Homo sapiens, UniProt P36507).
T2 construct: gene MAP2K2
Conditions: competition binding, % of control; read-out: Percent Control (100 uM Levosimendan). An outline of the steps:
as §1

The next assay concerns the target MAP3K4 (Homo sapiens, UniProt Q9Y6R4). Conditions: competition binding, % of control; read-out: Percent Control (100 uM Levosimendan). An outline of the steps: as §1
Another assay concerns the target FLT3 (Homo sapiens, UniProt P36888). Conditions: competition binding, % of control. In short, it runs like this: as §1
The target of the next assay is T3, CDC2L5 (Homo sapiens, UniProt Q14004).
T3 construct: gene CDK13
Conditions: competition binding, % of control; read-out: Percent Control (100 uM Levosimendan). In short, it runs like this: as §1

In another assay the target is TRPM6 (Homo sapiens, UniProt Q9BX84). The settings on record: competition binding, % of control; read-out: Percent Control (100 uM Levosimendan). An outline of the steps: as §1
In the next assay the target is ACVR2A (Homo sapiens, UniProt P27037). The settings on record: competition binding, % of control. An outline of the steps:
as §1

For a further assay, the target named is FGFR1 (Homo sapiens, UniProt P11362). The settings on record: competition binding, % of control. In short, it runs like this: as §1
The next assay has as its target MERTK (Homo sapiens, UniProt Q12866). Conditions: competition binding, % of control; read-out: Percent Control (100 uM Levosimendan). In short, it runs like this: as §1
The next assay concerns the target MAPKAPK5 (Homo sapiens, UniProt Q8IW41). The settings on record: competition binding, % of control; read-out: Percent Control (100 uM Levosimendan). An outline of the steps:
as §1

Another assay has as its target ACVRL1 (Homo sapiens, UniProt P37023). The settings on record: competition binding, % of control. In short, it runs like this: as §1
The next assay addresses PDPK1 (Homo sapiens, UniProt O15530). The settings on record: competition binding, % of control; read-out: Percent Control (100 uM Levosimendan). An outline of the steps:
as §1

A further assay has as its target T4, VEGFR2 (Homo sapiens, UniProt P35968).
T4 construct: gene KDR
Conditions: competition binding, % of control; read-out: Percent Control (100 uM Levosimendan). In short, it runs like this: as §1

For a further assay, the target named is CAMK2G (Homo sapiens, UniProt Q13555). Conditions: competition binding, % of control; read-out: Percent Control (100 uM Levosimendan). In short, it runs like this:
as §1

Another assay addresses T5, ERK8 (Homo sapiens, UniProt Q8TD08).
T5 construct: gene MAPK15
The settings on record: competition binding, % of control; read-out: Percent Control (100 uM Levosimendan). In short, it runs like this: as §1

Another assay has as its target PHKG1 (Homo sapiens, UniProt Q16816). The settings on record: competition binding, % of control; read-out: Percent Control (100 uM Levosimendan). An outline of the steps:
as §1

For a further assay, the target named is TESK1 (Homo sapiens, UniProt Q15569). The settings on record: competition binding, % of control; read-out: Percent Control (100 uM Levosimendan). An outline of the steps: as §1
The target of a further assay is T6, DCAMKL2 (Homo sapiens, UniProt Q8N568).
T6 construct: gene DCLK2
Conditions: competition binding, % of control; read-out: Percent Control (100 uM Levosimendan). An outline of the steps:
as §1

[1] abbreviates: read-out: Percent Control (10 uM Levosimendan).
[2] abbreviates: read-out: Percent Control (100 uM Levosimendan).

Chain of ACVR2A (P27037 whole entry): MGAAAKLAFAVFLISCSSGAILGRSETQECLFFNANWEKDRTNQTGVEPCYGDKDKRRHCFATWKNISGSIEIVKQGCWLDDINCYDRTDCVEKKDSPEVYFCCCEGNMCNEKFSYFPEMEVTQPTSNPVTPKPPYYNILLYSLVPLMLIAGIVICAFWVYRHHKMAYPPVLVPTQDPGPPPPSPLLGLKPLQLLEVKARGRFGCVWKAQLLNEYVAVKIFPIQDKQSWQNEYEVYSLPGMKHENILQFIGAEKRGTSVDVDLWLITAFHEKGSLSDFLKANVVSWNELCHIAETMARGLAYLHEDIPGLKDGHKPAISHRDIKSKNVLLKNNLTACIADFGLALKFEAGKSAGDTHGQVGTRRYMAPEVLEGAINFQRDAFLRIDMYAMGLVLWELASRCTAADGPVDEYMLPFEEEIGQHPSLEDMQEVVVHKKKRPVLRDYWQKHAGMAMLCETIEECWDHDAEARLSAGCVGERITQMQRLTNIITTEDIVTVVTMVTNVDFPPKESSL
Chain of FLT3 (P36888 whole entry): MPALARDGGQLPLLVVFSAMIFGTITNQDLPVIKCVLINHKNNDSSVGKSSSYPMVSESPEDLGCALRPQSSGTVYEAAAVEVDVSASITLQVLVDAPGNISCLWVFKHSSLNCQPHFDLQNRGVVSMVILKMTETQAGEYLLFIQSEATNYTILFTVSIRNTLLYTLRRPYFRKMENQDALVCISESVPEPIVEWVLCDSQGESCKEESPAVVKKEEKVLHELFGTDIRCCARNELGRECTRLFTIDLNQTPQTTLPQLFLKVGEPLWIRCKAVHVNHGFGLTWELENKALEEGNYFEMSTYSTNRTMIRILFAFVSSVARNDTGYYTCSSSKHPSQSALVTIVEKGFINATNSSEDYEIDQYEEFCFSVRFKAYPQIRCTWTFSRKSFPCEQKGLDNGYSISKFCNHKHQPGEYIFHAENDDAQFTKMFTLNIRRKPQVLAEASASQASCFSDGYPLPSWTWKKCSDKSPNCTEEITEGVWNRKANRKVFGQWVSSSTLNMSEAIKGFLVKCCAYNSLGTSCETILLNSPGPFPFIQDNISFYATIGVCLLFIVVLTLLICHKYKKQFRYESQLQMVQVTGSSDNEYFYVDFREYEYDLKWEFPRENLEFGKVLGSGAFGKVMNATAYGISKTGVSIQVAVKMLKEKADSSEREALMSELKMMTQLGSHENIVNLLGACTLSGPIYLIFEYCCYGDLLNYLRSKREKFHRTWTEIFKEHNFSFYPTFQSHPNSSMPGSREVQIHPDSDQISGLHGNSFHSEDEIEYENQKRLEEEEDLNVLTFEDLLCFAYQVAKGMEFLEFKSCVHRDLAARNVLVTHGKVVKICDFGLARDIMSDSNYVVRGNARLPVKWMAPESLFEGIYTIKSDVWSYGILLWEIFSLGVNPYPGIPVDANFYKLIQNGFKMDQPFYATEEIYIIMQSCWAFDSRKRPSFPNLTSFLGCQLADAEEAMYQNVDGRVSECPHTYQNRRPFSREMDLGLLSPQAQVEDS
Chain of ACVRL1 (P37023 whole entry): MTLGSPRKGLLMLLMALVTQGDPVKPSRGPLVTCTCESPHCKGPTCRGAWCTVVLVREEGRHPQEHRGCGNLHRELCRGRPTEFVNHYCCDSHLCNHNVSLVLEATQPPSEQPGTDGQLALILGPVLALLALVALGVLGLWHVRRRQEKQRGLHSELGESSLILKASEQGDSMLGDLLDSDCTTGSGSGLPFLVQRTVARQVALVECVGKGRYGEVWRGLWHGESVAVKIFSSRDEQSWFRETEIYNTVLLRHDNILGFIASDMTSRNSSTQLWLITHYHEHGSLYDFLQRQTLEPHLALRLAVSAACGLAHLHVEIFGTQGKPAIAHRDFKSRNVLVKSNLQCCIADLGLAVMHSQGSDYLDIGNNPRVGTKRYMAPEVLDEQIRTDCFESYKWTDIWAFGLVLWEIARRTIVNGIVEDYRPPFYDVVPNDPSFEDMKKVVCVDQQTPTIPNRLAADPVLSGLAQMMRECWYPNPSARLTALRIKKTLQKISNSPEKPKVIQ
Chain of FGFR1 (P11362 whole entry): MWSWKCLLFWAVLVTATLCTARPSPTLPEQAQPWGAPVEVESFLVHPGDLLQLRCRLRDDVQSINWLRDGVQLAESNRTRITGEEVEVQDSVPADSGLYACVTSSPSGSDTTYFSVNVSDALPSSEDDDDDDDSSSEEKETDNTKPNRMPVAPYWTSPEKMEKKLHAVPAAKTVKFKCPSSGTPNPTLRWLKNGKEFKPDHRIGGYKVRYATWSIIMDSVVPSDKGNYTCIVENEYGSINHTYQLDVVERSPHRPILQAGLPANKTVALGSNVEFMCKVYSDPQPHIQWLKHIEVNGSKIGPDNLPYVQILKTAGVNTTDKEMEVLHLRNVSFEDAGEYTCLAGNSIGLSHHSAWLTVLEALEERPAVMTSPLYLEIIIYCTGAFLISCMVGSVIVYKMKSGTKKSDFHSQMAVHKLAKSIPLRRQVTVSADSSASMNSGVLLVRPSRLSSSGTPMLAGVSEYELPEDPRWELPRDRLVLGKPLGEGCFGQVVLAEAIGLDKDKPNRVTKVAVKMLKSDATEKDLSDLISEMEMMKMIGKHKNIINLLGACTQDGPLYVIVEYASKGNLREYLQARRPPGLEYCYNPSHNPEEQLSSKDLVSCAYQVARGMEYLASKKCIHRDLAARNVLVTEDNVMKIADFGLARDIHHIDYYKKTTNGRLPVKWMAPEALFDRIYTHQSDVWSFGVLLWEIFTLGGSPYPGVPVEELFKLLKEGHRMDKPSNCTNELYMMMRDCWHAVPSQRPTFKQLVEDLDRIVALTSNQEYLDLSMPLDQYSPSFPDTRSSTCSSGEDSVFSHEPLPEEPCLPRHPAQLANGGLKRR
Chain of TRPM6 (Q9BX84 whole entry): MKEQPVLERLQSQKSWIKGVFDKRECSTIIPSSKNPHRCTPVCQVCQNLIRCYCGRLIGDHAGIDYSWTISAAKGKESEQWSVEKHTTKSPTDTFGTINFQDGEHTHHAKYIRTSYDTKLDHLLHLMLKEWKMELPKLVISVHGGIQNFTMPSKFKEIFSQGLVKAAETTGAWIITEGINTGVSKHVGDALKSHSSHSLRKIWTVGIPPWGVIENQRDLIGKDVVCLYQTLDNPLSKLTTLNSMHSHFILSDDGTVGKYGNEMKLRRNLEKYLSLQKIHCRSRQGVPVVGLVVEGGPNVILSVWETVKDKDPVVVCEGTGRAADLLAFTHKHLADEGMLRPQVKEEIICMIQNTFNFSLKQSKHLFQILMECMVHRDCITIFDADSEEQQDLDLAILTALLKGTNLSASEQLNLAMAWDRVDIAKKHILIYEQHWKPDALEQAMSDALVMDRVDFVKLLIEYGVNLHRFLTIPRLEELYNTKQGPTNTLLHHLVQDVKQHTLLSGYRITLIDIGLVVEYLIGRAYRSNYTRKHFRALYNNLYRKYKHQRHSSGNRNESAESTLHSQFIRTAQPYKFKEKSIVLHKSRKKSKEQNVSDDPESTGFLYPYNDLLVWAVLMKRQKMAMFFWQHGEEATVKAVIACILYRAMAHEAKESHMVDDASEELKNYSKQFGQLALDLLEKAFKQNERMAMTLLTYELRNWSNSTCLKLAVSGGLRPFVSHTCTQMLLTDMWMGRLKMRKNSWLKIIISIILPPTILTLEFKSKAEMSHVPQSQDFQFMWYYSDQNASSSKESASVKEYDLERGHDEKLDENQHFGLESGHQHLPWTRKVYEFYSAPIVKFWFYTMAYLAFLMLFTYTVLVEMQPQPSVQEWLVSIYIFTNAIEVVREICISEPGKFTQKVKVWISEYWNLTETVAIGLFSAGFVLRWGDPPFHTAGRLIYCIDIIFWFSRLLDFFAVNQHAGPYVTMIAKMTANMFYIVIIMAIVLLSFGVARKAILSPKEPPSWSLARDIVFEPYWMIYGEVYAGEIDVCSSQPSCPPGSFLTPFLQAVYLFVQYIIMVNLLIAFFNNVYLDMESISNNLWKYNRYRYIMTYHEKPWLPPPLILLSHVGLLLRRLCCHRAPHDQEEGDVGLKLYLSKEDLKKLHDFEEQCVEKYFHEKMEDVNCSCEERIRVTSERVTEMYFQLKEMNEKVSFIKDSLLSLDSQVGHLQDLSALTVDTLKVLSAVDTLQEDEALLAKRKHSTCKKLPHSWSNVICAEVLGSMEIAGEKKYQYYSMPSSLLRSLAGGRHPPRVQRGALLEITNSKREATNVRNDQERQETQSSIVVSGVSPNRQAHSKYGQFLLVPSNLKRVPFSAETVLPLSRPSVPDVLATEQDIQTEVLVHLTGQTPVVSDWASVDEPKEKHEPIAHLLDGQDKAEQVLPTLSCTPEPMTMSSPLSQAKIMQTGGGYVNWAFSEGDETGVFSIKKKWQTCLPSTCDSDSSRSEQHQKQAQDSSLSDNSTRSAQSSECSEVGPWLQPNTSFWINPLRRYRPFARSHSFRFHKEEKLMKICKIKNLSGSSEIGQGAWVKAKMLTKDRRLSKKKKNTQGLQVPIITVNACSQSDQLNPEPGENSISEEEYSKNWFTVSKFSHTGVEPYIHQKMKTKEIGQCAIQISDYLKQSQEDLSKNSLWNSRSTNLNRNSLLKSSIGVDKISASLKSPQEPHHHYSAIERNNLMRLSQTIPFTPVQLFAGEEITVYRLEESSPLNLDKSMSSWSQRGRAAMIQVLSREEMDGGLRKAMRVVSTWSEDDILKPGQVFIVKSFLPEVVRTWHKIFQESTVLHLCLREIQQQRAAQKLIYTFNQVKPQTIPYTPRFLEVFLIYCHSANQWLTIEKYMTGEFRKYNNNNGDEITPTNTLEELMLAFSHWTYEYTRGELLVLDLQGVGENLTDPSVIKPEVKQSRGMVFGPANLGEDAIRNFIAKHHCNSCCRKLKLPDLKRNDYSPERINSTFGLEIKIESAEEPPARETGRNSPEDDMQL

`C[C@@H]1CC(=O)NN=C1c1ccc(NN=C(C#N)C#N)cc1` [levosimendan]: the remaining binding at 100 µM on CDC2L1 amounted to 100%; at EPHA7, 85%; at MEK2, 70%; on MAP3K4, 58%; on FLT3 (setting [2]), 0.9%; at CDC2L5 it was 100%. Besides, the remaining binding at 100 µM on TRPM6 came out at 89%; on ACVR2A (setting [2]), 46%; at FGFR1 (setting [2]) it was 50%; on MERTK, 70%; on MAPKAPK5, 100%; on ACVRL1 (setting [2]) it was 30%. Besides, the remaining binding at 100 µM at PDPK1 was determined as 100%; at VEGFR2, 100%; on CAMK2G, 88%; at ERK8, 100%; on PHKG1, 89%; on TESK1, 96%. The remaining binding at 100 µM on DCAMKL2 turned out to be 100%. The remaining binding at 10 µM at FLT3 (setting [1]) was 24%; on ACVR2A (setting [1]), 100%; on FGFR1 (setting [1]), 98%; on ACVRL1 (setting [1]), 71%.

The values above are taken from publication PMC6576746, “Rational discovery of dual-indication multi-target PDE/Kinase inhibitor for precision anti-cancer therapy using structural systems pharmacology” (PLoS Computational Biology, 2019).
